According to the supplement of paper PMC10627819:

What was measured:
B. subtilis 168 [1] = test: fitness (endpoint OD595 vs no drug) (fraction); higher = more growth
In short: (§1)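 Cultures at OD595 0.01 were dispensed into 384-well plates in TSB, LB Lennox or CY and incubated at 37 °C. Every 30 min for 14 h, OD595 was read and corrected by the first reading. Fitness is the optical density at entry into stationary phase relative to the robust mean of no-drug control wells, capped at 1.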

S. aureus Newman [2] = test: as above
In short: as §1

S. pneumoniae D39V [3] = test: as above
In short: as §1

B. subtilis 168 [4] = test: Bliss interaction score (quartile over a dose matrix) (fitness difference); higher = more antagonism (negative = synergy)
In short: (§2)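 Fitness is OD595 at stationary-phase entry relative to the plate's robust no-drug mean, capped at 1. Single-drug fitness was inferred from combinations. The Bliss score is observed minus product-expected fitness, summarised by quartiles over technical, biological and donor/recipient replicates.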

S. aureus DSM 20231 = test: as above
In short: as §2

S. aureus Newman [5] = test: as above
In short: as §2

S. pneumoniae D39V [6] = test: as above
In short: as §2
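For Bliss interaction score (quartile over a dose matrix) in this document: first quartile when negative (synergy) and third quartile when positive (antagonism).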

O=C(O)c1cn(C2CC2)c2cc(N3CCNCC3)c(F)cc2c1=O [Ciprofloxacin] + CC(C1CCC(C(O1)OC2C(CC(C(C2O)OC3C(C(C(CO3)(C)O)NC)O)N)N)N)NC [Gentamicin]
main component drawn
Settings	fitness
B. subtilis 168 [1], first compound 0.0098 µg/mL, partner 0.0625 µg/mL	0.881
B. subtilis 168 [1], first compound 0.0195 µg/mL, partner 0.0625 µg/mL	0.703
B. subtilis 168 [1], first compound 0.039 µg/mL, partner 0.25 µg/mL	0.117
S. aureus Newman [2], first compound 0.0375 µg/mL, partner 0.5 µg/mL	0.786
S. aureus Newman [2], first compound 0.0375 µg/mL, partner 1 µg/mL	0.877
S. aureus Newman [2], first compound 0.0375 µg/mL, partner 2 µg/mL	0.917
S. aureus Newman [2], first compound 0.075 µg/mL, partner 0.5 µg/mL	0.74
S. aureus Newman [2], first compound 0.075 µg/mL, partner 1 µg/mL	0.786
S. aureus Newman [2], first compound 0.075 µg/mL, partner 2 µg/mL	0.783
S. aureus Newman [2], first compound 0.15 µg/mL, partner 0.5 µg/mL	0.43
S. pneumoniae D39V [3], first compound 0.125 µg/mL, partner 2 µg/mL	0.954
S. pneumoniae D39V [3], first compound 0.125 µg/mL, partner 4 µg/mL	0.92
S. pneumoniae D39V [3], first compound 0.125 µg/mL, partner 8 µg/mL	0.884
S. pneumoniae D39V [3], first compound 0.25 µg/mL, partner 2 µg/mL	0.792
S. pneumoniae D39V [3], first compound 0.25 µg/mL, partner 4 µg/mL	0.766
S. pneumoniae D39V [3], first compound 0.25 µg/mL, partner 8 µg/mL	0.677

fitness, S. aureus Newman [2], one replicate, main component drawn
Settings	first compound 0.0375 µg/mL	first compound 0.075 µg/mL	first compound 0.15 µg/mL
partner 0.375 µg/mL	0.704	0.787	0.0591
partner 0.75 µg/mL	0.712	0.728	0.0774
partner 1.5 µg/mL	0.639	0.175	0.0856

main component drawn
Settings	Bliss interaction score
B. subtilis 168 [4]	0.19
S. aureus DSM 20231	0.0655
S. aureus Newman [5]	0.12
S. pneumoniae D39V [6]	-0.0953

O=C(O)c1cn(C2CC2)c2cc(N3CCNCC3)c(F)cc2c1=O [Ciprofloxacin] + O=C(O[C@@H]1Cc2c(O)cc(O)cc2O[C@@H]1c1cc(O)c(O)c(O)c1)c1cc(O)c(O)c(O)c1 [EGCG]
fitness
Settings	partner 6.25 µg/mL	partner 12.5 µg/mL	partner 25 µg/mL	partner 50 µg/mL
B. subtilis 168 [1], first compound 0.0098 µg/mL	0.878	–	–	–
B. subtilis 168 [1], first compound 0.0195 µg/mL	0.741	0.54	0.375	–
B. subtilis 168 [1], first compound 0.039 µg/mL	–	0.35	0.295	–
S. aureus Newman [2], first compound 0.0375 µg/mL	–	0.666	0.557	0.544
S. aureus Newman [2], first compound 0.075 µg/mL	–	0.55	0.534	0.609
S. aureus Newman [2], first compound 0.15 µg/mL	–	0.0805	0.0356	0.053
S. pneumoniae D39V [3], first compound 0.125 µg/mL	–	0.931	0.907	0.971
S. pneumoniae D39V [3], first compound 0.25 µg/mL	–	0.796	0.889	0.69

Settings	Bliss interaction score
B. subtilis 168 [4]	0.149
S. aureus DSM 20231	0.0949
S. aureus Newman [5]	-0.0544
S. pneumoniae D39V [6]	-0.0717

COc1cccc2c1C(=O)c1c(O)c3c(c(O)c1C2=O)C[C@@](O)(C(=O)CO)C[C@@H]3O[C@H]1C[C@H](N)[C@H](O)[C@H](C)O1 [Doxorubicin] + CN(C)c1cc(NC(=O)CNC(C)(C)C)c(O)c2c1C[C@H]1C[C@H]3[C@H](N(C)C)C(O)=C(C(N)=O)C(=O)[C@@]3(O)C(O)=C1C2=O [Tigecycline]
fitness
Settings	first compound 0.25 µg/mL	first compound 0.5 µg/mL	first compound 0.625 µg/mL	first compound 1 µg/mL	first compound 1.25 µg/mL	first compound 2.5 µg/mL
B. subtilis 168 [1], partner 0.039 µg/mL	–	–	≥ 1	–	0.952	0.65
B. subtilis 168 [1], partner 0.078 µg/mL	–	–	0.868	–	0.939	0.609
B. subtilis 168 [1], partner 0.156 µg/mL	–	–	0.919	–	0.879	0.693
S. aureus Newman [2], partner 0.039 µg/mL	–	–	0.783	–	0.761	0.71
S. aureus Newman [2], partner 0.078 µg/mL	–	–	0.822	–	0.821	0.742
S. aureus Newman [2], partner 0.156 µg/mL	–	–	0.828	–	0.811	0.744
S. pneumoniae D39V [3], partner 0.325 µg/mL	0.927	0.975	–	0.931	–	–
S. pneumoniae D39V [3], partner 0.65 µg/mL	0.928	0.94	–	0.89	–	–
S. pneumoniae D39V [3], partner 1.3 µg/mL	0.926	0.961	–	0.884	–	–
S. pneumoniae D39V [3], partner 2.6 µg/mL	0.874	0.912	–	0.79	–	–

fitness, B. subtilis 168 [1], one replicate
Settings	first compound 0.625 µg/mL	first compound 1.25 µg/mL	first compound 2.5 µg/mL
partner 0.125 µg/mL	0.963	0.984	0.973
partner 0.25 µg/mL	0.89	0.892	0.916
partner 0.5 µg/mL	0.86	0.913	0.925

Settings	Bliss interaction score
B. subtilis 168 [4]	0.0886
S. aureus DSM 20231	-0.0419
S. aureus Newman [5]	-0.0645
S. pneumoniae D39V [6]	0.0654

O=C(O)c1cn(C2CC2)c2cc(N3CCNCC3)c(F)cc2c1=O [Ciprofloxacin] + C[n+]1ccc(-c2cc[n+](C)cc2)cc1 [Paraquat]
Settings	fitness
B. subtilis 168 [1], first compound 0.0098 µg/mL, partner 1.25 µg/mL	0.895
B. subtilis 168 [1], first compound 0.0098 µg/mL, partner 2.5 µg/mL	0.922
B. subtilis 168 [1], first compound 0.0098 µg/mL, partner 5 µg/mL	0.788
B. subtilis 168 [1], first compound 0.0195 µg/mL, partner 1.25 µg/mL	0.753
B. subtilis 168 [1], first compound 0.0195 µg/mL, partner 2.5 µg/mL	0.657
B. subtilis 168 [1], first compound 0.0195 µg/mL, partner 5 µg/mL	0.687
B. subtilis 168 [1], first compound 0.039 µg/mL, partner 1.25 µg/mL	0.171
B. subtilis 168 [1], first compound 0.039 µg/mL, partner 2.5 µg/mL	0.171
B. subtilis 168 [1], first compound 0.039 µg/mL, partner 5 µg/mL	0.234
S. aureus Newman [2], first compound 0.0375 µg/mL, partner 1.25 µg/mL	0.662
S. aureus Newman [2], first compound 0.0375 µg/mL, partner 2.5 µg/mL	0.639
S. aureus Newman [2], first compound 0.0375 µg/mL, partner 5 µg/mL	0.642
S. aureus Newman [2], first compound 0.075 µg/mL, partner 1.25 µg/mL	0.674
S. aureus Newman [2], first compound 0.075 µg/mL, partner 2.5 µg/mL	0.635
S. aureus Newman [2], first compound 0.075 µg/mL, partner 5 µg/mL	0.663
S. aureus Newman [2], first compound 0.15 µg/mL, partner 1.25 µg/mL	0.033
S. aureus Newman [2], first compound 0.15 µg/mL, partner 2.5 µg/mL	0.0399
S. aureus Newman [2], first compound 0.15 µg/mL, partner 5 µg/mL	0.0549
S. pneumoniae D39V [3], first compound 0.125 µg/mL, partner 1.5 µg/mL	0.983
S. pneumoniae D39V [3], first compound 0.125 µg/mL, partner 3 µg/mL	0.974
S. pneumoniae D39V [3], first compound 0.125 µg/mL, partner 6 µg/mL	0.97
S. pneumoniae D39V [3], first compound 0.25 µg/mL, partner 1.5 µg/mL	0.942
S. pneumoniae D39V [3], first compound 0.25 µg/mL, partner 3 µg/mL	0.913
S. pneumoniae D39V [3], first compound 0.25 µg/mL, partner 6 µg/mL	0.902
S. pneumoniae D39V [3], first compound 0.5 µg/mL, partner 1.5 µg/mL	0.877
S. pneumoniae D39V [3], first compound 0.5 µg/mL, partner 3 µg/mL	0.875

Settings	Bliss interaction score
B. subtilis 168 [4]	-0.0477
S. aureus DSM 20231	-0.0499
S. aureus Newman [5]	-0.0507
S. pneumoniae D39V [6]	0.0853

O=C(O)c1cn(C2CC2)c2cc(N3CCNCC3)c(F)cc2c1=O [Ciprofloxacin] + COc1cccc2c1C(=O)c1c(O)c3c(c(O)c1C2=O)C[C@@](O)(C(=O)CO)C[C@@H]3O[C@H]1C[C@H](N)[C@H](O)[C@H](C)O1 [Doxorubicin]
Settings	fitness
B. subtilis 168 [1], first compound 0.0098 µg/mL, partner 0.625 µg/mL	0.908
B. subtilis 168 [1], first compound 0.0098 µg/mL, partner 1.25 µg/mL	0.872
B. subtilis 168 [1], first compound 0.0195 µg/mL, partner 0.625 µg/mL	0.702
B. subtilis 168 [1], first compound 0.0195 µg/mL, partner 1.25 µg/mL	0.628
B. subtilis 168 [1], first compound 0.039 µg/mL, partner 0.625 µg/mL	0.186
B. subtilis 168 [1], first compound 0.039 µg/mL, partner 1.25 µg/mL	0.131
B. subtilis 168 [1], first compound 0.039 µg/mL, partner 2.5 µg/mL	0.037
S. aureus Newman [2], first compound 0.0375 µg/mL, partner 0.625 µg/mL	0.634
S. aureus Newman [2], first compound 0.0375 µg/mL, partner 1.25 µg/mL	0.667
S. aureus Newman [2], first compound 0.0375 µg/mL, partner 2.5 µg/mL	0.658
S. aureus Newman [2], first compound 0.075 µg/mL, partner 0.625 µg/mL	0.689
S. aureus Newman [2], first compound 0.075 µg/mL, partner 1.25 µg/mL	0.698
S. aureus Newman [2], first compound 0.075 µg/mL, partner 2.5 µg/mL	0.642
S. aureus Newman [2], first compound 0.15 µg/mL, partner 1.25 µg/mL	0.203
S. aureus Newman [2], first compound 0.15 µg/mL, partner 2.5 µg/mL	0.15
S. pneumoniae D39V [3], first compound 0.125 µg/mL, partner 0.25 µg/mL	0.899
S. pneumoniae D39V [3], first compound 0.125 µg/mL, partner 0.5 µg/mL	0.914
S. pneumoniae D39V [3], first compound 0.125 µg/mL, partner 1 µg/mL	0.821
S. pneumoniae D39V [3], first compound 0.25 µg/mL, partner 0.25 µg/mL	0.745
S. pneumoniae D39V [3], first compound 0.25 µg/mL, partner 0.5 µg/mL	0.774
S. pneumoniae D39V [3], first compound 0.25 µg/mL, partner 1 µg/mL	0.694

Settings	Bliss interaction score
B. subtilis 168 [4]	-0.0827
S. aureus DSM 20231	0.154
S. aureus Newman [5]	0.193
S. pneumoniae D39V [6]	-0.0454
